# Test results reported in patent publication US7989463B2, “Biccyclic compounds as GATA modulators” (Dr. Reddy's Laboratories Limited, priority 2008, dated 2011).
# What was measured:
# GATA1 = experiment: GATA Assay: GATA Translucent Reporter Vector luciferase assay in transfected HepG2 cells; format: cell-based, Human; details: luciferase normalized to total protein
# Method: Human HepG2 (ATCC) cells were grown in Eagle's Minimum Essential Media (MEM) containing 10% heat inactivated Fetal Bovine Serum (FBS) (Invitrogen) and 5 mL Penicillin-Streptomycin (Invitrogen) in T75 flasks (Corning) in a 37° C./5% CO2 tissue culture incubator (Thermo Electron Corporation) prior to the study. 96-well plates (Corning) were seeded in MEM containing 10% FBS to yield ˜50% confluency. The following day, cells were transfected using FuGENE 6 transfection reagent (Roche) and […] GATA Translucent Reporter Vector (Panomics) according the manufacturer's (Roche) protocol and incubated for about 10-19 h. The next day, the cells were treated with equal volumes of vehicle, dimethyl sulfoxide (DMSO) (Hybri-Max Sterile Filtered Sigma Aldrich) or compounds of formula (I) (in DMSO) diluted in MEM containing 1% FBS. The treated cells were incubated about 8-19 h. The next day the treatment media was removed and the cells were lysed and assayed for luciferase activity using the luciferase assay system (Promega) and using the Envision plate reader (Perkin Elmer). The lysates were also used to measure total protein content with the MicroBCA protein assay kit (Pierce) using the Multiskan Ascent plate reader at 570 nm. Luciferase values were normalized to total protein and fold induction was calculated.
# Compounds that show an increase of ≧40% in luciferase levels at ≦20 μm concentration were considered as GATA activators.
structure (smiles),measurement,setting,value
"O=C(O)C1(c2ccc(Nc3nc(C4CCCC4)nc4c3CCC4)cc2)CCCC1 [Example 1, 1-[4-(2-cyclopentyl-6,7-dihydro-5H-cyclopentapyrimidin-4-ylamino)-phenyl]-cyclopentanecarboxylic acid]",melting point,,321 to 325 °C
"O=C(O)C1(c2ccc(Nc3nc(Nc4cccc(F)c4)nc4c3CCC4)cc2)CCC1 [Example 12, 1-{4-[2-(3-fluoro-phenylamino)-6,7-dihydro-5H-cyclopentapyrimidin-4-ylamino]-phenyl}-cyclobutanecarboxylic acid]",GATA1 Activation (Fold Change Vs Control),GATA1; 5μ compound,3.22 Fold Change Vs Control
same,GATA1 Activation (Fold Change Vs Control),GATA1; 10μ compound,3.38 Fold Change Vs Control
"O=C(O)C1(c2ccc(Nc3nc(NC4CCCC4)nc4c3CCC4)cc2)CCC1 [Example 13, 1-[4-(2-cyclopentylamino-6,7-dihydro-5H-cyclopentapyrimidin-4-ylamino)-phenyl]-cyclobutanecarboxylic acid]",GATA1 Activation (Fold Change Vs Control),GATA1; 5μ compound,1.94 Fold Change Vs Control
same,GATA1 Activation (Fold Change Vs Control),GATA1; 10μ compound,1.67 Fold Change Vs Control
"CC(C)(C)Nc1nc(Nc2ccc(C3(C(=O)O)CCCC3)cc2)nc2c1CCC2 [Example 10, 1-[4-(4-tert-butylamino-6,7-dihydro-5H-cyclopentapyrimidin-2-ylamino)-phenyl]-cyclopentanecarboxylic acid]",GATA1 Activation (Fold Change Vs Control),GATA1; 5μ compound,2.07 Fold Change Vs Control
same,GATA1 Activation (Fold Change Vs Control),GATA1; 10μ compound,2.43 Fold Change Vs Control
"O=C(O)C1(c2ccc(Nc3nc(N4CCC(O)CC4)nc4c3CCC4)cc2)CCC1 [Example 5, 1-{4-[2-(4-hydroxy-piperidin-1-yl)-6,7-dihydro-5H-cyclopentapyrimidin-4-ylamino]-phenyl}-cyclobutanecarboxylic acid]",melting point,,165 to 167 °C
"Cn1cc(-c2nc3c(c(Nc4ccc(C5(C(=O)O)CCC5)cc4)n2)CCC3)cn1 [Example 7, 1-{4-[2-(1-methyl-1H-pyrazol-4-yl)-6,7-dihydro-5H-cyclopentapyrimidin-4-ylamino]-phenyl}-cyclobutanecarboxylic acid]",GATA1 Activation (Fold Change Vs Control),GATA1; 5μ compound,1.79 Fold Change Vs Control
same,GATA1 Activation (Fold Change Vs Control),GATA1; 10μ compound,2.09 Fold Change Vs Control
"O=C(O)C1(c2ccc(Nc3nc(N4CCCC4)nc4c3CCC4)cc2)CCC1 [Example 6, 1-[4-(2-pyrrolidin-1-yl-6,7-dihydro-5H-cyclopentapyrimidin-4-ylamino)-phenyl]-cyclobutanecarboxylic acid]",melting point,,245 to 247 °C
"O=C(O)C1(c2ccc(Nc3nc(N4CCOCC4)nc4c3CCC4)cc2)CCC1 [Example 4, 1-[4-(2-morpholin-4-yl-6,7-dihydro-5H-cyclopentapyrimidin-4-ylamino)-phenyl]-cyclobutanecarboxylic acid]",GATA1 Activation (Fold Change Vs Control),GATA1; 5μ compound,2.45 Fold Change Vs Control
same,GATA1 Activation (Fold Change Vs Control),GATA1; 10μ compound,3.45 Fold Change Vs Control
same,melting point,,279 to 281 °C
"CC(=O)c1ccc(-c2nc3c(c(Nc4ccc(C5(C(=O)O)CCC5)cc4)n2)CCC3)cc1 [Example 9, 1-{4-[2-(4-acetyl-phenyl)-6,7-dihydro-5H-cyclopentapyrimidin-4-ylamino]-phenyl}-cyclobutanecarboxylic acid]",GATA1 Activation (Fold Change Vs Control),GATA1; 5μ compound,2.90 Fold Change Vs Control
same,GATA1 Activation (Fold Change Vs Control),GATA1; 10μ compound,3.50 Fold Change Vs Control
